Assays:
[1] = system: Eimeria tenella; experiment: Minimum effective concentration in feed to protect chickens against infections caused by Eimeria tenella; format: functional
[2] = Plasma half-life in 6-8 weeks old broiler chickens; format: ADME, organism-based, Gallus gallus; conditions: chicken
[3] = Plasma half-life in 2 weeks-old chickens; format: ADME, organism-based, Gallus gallus; conditions: chicken

| Compound | MEC [1] [p.p.m.] | half-life [2] [min] | half-life [3] [min] |
| --- | --- | --- | --- |
| O=c1cnn(-c2ccc(S(=O)(=O)c3ccccc3)cc2)c(=O)[nH]1 | 30 | – | – |
| CCc1cc(-n2ncc(=O)[nH]c2=O)cc(C)c1Sc1ccc(Cl)cc1 | 60 | – | – |
| C[S+]([O-])c1c(Cl)cc(-n2ncc(=O)[nH]c2=O)cc1Cl (stereo not given) | >125 | – | – |
| O=c1cnn(-c2ccc(S(=O)(=O)c3ccc(Cl)cc3)cc2)c(=O)[nH]1 | 4 | – | – |
| O=c1cnn(-c2ccc(Sc3ccc(Cl)cc3)cc2)c(=O)[nH]1 | 4 | – | – |
| O=c1cnn(-c2cc(Cl)c(Sc3ccccc3)c(Cl)c2)c(=O)[nH]1 | 8 | – | – |
| O=c1cnn(-c2cc(Cl)c(Sc3ccc(Cl)cc3)c(Cl)c2)c(=O)[nH]1 | 0.25 | 2820 | – |
| Cc1cc(-n2ncc(=O)[nH]c2=O)ccc1S(=O)(=O)c1ccc(Cl)cc1 | 2 | 870 | 600 |
| O=c1cnn(-c2ccc(Sc3ccc4ccccc4c3)c(Cl)c2)c(=O)[nH]1 | 125 | – | – |
| O=c1cnn(-c2ccc(S(=O)(=O)c3ccc(Cl)cc3)c(Cl)c2)c(=O)[nH]1 | 2 | – | – |
| O=c1cnn(-c2ccc(S(=O)(=O)Cc3ccccc3)cc2)c(=O)[nH]1 | >125 | – | – |
| Cc1cc(-n2ncc(=O)[nH]c2=O)ccc1[S+]([O-])c1ccc(Cl)cc1 (stereo not given) | 4 | – | – |
| Cc1ccc(S(=O)(=O)c2ccc(-n3ncc(=O)[nH]c3=O)cc2)cc1 | 250 | – | – |
| CC(C)(C)c1ccc(Sc2ccc(-n3ncc(=O)[nH]c3=O)cc2Cl)cc1 | >60 | – | – |
| O=c1cnn(-c2ccc(Sc3ccc([N+](=O)[O-])cc3)cc2)c(=O)[nH]1 | 30 | – | – |
| Cc1ccccc1S(=O)(=O)c1ccc(-n2ncc(=O)[nH]c2=O)cc1 | >125 | – | – |
| O=c1cnn(-c2ccc(Sc3ccc(Cl)cc3)c([N+](=O)[O-])c2)c(=O)[nH]1 | 60 | – | – |
| O=c1cnn(-c2ccc(S(=O)(=O)c3ccc([N+](=O)[O-])cc3)cc2)c(=O)[nH]1 | >250 | – | – |
| Cc1cc(-n2ncc(=O)[nH]c2=O)cc(Cl)c1S(=O)(=O)c1ccc(Cl)cc1 | 15 | 1560 | – |

| Compound | MEC [1] [p.p.m.] | half-life [2] [min] | half-life [3] [min] |
| --- | --- | --- | --- |
| O=c1cnn(-c2cc(Br)c(Sc3ccc([N+](=O)[O-])cc3)c(Br)c2)c(=O)[nH]1 | 8 | – | – |
| Cc1cc(-n2ncc(=O)[nH]c2=O)cc(C)c1[S+]([O-])c1ccc(Cl)cc1 (stereo not given) | 1 | – | – |
| O=c1cnn(-c2ccc(Sc3ccc(Cl)cc3)c(Cl)c2)c(=O)[nH]1 | 2 | 2280 | – |
| CS(=O)(=O)c1c(Cl)cc(-n2ncc(=O)[nH]c2=O)cc1Cl | >125 | – | – |
| O=c1cnn(-c2ccc(S(=O)(=O)Cc3ccc(Cl)cc3)cc2)c(=O)[nH]1 | 250 | – | – |
| Cc1cc(-n2ncc(=O)[nH]c2=O)ccc1S(=O)(=O)c1ccc(Br)cc1 | 15 | – | – |
| CC(C)(C)c1ccc(S(=O)(=O)c2ccc(-n3ncc(=O)[nH]c3=O)cc2)cc1 | >250 | – | – |
| CSc1c(Cl)cc(-n2ncc(=O)[nH]c2=O)cc1Cl | 30 | – | – |
| CC(c1ccccc1)S(=O)(=O)c1ccc(-n2ncc(=O)[nH]c2=O)cc1 (stereo not given) | >125 | – | – |
| Cc1cc(-n2ncc(=O)[nH]c2=O)ccc1Sc1ccc(Cl)cc1 | 2 | – | – |
| Cc1cc(-n2ncc(=O)[nH]c2=O)cc(C)c1S(=O)(=O)c1ccc(Cl)cc1 | 1 | – | – |
| Cc1cc(-n2ncc(=O)[nH]c2=O)cc(C)c1Sc1ccc(I)cc1 | 15 | – | – |
| COc1cc(-n2ncc(=O)[nH]c2=O)ccc1S(=O)(=O)c1ccc(Cl)cc1 | >125 | – | – |
| O=c1cnn(-c2ccc(Sc3ccc(Br)cc3)c(Cl)c2)c(=O)[nH]1 | 2 | – | – |
| O=c1cnn(-c2cc(Cl)c(S(=O)(=O)c3ccc(Cl)cc3)c(Cl)c2)c(=O)[nH]1 | 0.5 | – | – |
| Cc1cc(-n2ncc(=O)[nH]c2=O)cc(Cl)c1Sc1ccc(Cl)cc1 | 0.25 | – | – |
| O=c1cnn(-c2ccc(S(=O)(=O)c3ccc(Br)cc3)cc2)c(=O)[nH]1 | 8 | – | 1140 |
| Cc1cc(-n2ncc(=O)[nH]c2=O)cc(C)c1Sc1ccc(Cl)cc1 [TIAZURIL] | 0.5 | 960 | – |
| O=c1cnn(-c2cc(Cl)c(Sc3ccc(S(=O)(=O)N4CCOCC4)cc3)c(Cl)c2)c(=O)[nH]1 | >60 | – | – |
